These are literature values, as cited in EP3854219A1, “EDIBLE AND WATER-SOLUBLE CHEWABLE TOY FOR ANIMALS, IN PARTICULAR FOR THE RELEASE OF ACTIVE INGREDIENTS” (New Project S.r.l., priority 2020, dated 2021).

The data set has as its system rats. The settings on record: oral ingestion.

One may read the LD50 as the dose at which mortality reaches 50%. With `CO` [methanol], the LD50 is recorded as 5628 mg/kg.
